From PubChem BioAssay (NCI)
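The concentration for 50% growth inhibition is given as GI50. The concentration for full growth arrest is given as TGI.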

Tests used:
Assay in all cases: growth of human tumour cells (NCI), 384-well format
SNB-75 CNS = tested on: SNB-75 CNS
SR leukemia = tested on: SR leukemia
A498 renal = tested on: A498 renal
COLO 205 colon = tested on: COLO 205 colon
SK-MEL-5 melanoma = tested on: SK-MEL-5 melanoma
NCI-H23 lung = tested on: NCI-H23 lung
EKVX NSCLC = tested on: EKVX NSCLC
OVCAR-8 ovarian = tested on: OVCAR-8 ovarian
IGROV1 ovarian = tested on: IGROV1 ovarian
NCI-H226 lung = tested on: NCI-H226 lung
A549 NSCLC = tested on: A549 NSCLC
HCC-2998 colon = tested on: HCC-2998 colon
PC-3 prostate = tested on: PC-3 prostate
U251 glioblastoma = tested on: U251 glioblastoma
MDA-MB-435 melanoma = tested on: MDA-MB-435 melanoma
MDA-MB-231 breast = tested on: MDA-MB-231 breast
RPMI-8226 leukemia = tested on: RPMI-8226 leukemia
SK-OV-3 ovarian = tested on: SK-OV-3 ovarian
BT-549 breast = tested on: BT-549 breast
HOP-62 NSCLC = tested on: HOP-62 NSCLC
TK-10 renal = tested on: TK-10 renal
SNB-19 CNS = tested on: SNB-19 CNS
HCT-15 colon = tested on: HCT-15 colon
T-47D breast = tested on: T-47D breast
NCI-H460 NSCLC = tested on: NCI-H460 NSCLC
SN12C renal = tested on: SN12C renal
NCI-H522 lung = tested on: NCI-H522 lung
SF-268 CNS = tested on: SF-268 CNS
UACC-257 melanoma = tested on: UACC-257 melanoma
CAKI-1 renal = tested on: CAKI-1 renal
RXF 393 renal = tested on: RXF 393 renal
NCI/ADR-RES ovarian = tested on: NCI/ADR-RES ovarian
OVCAR-3 ovarian = tested on: OVCAR-3 ovarian
M14 melanoma = tested on: M14 melanoma
MDA-MB-468 breast = tested on: MDA-MB-468 breast
OVCAR-4 ovarian = tested on: OVCAR-4 ovarian
LOX IMVI melanoma = tested on: LOX IMVI melanoma
DU-145 prostate = tested on: DU-145 prostate
HS 578T breast = tested on: HS 578T breast
NCI-H322M lung = tested on: NCI-H322M lung
HT29 colon = tested on: HT29 colon
KM12 colon = tested on: KM12 colon
SF-295 CNS = tested on: SF-295 CNS
MCF7 breast = tested on: MCF7 breast
HCT-116 colon = tested on: HCT-116 colon
HL-60(TB) leukemia = tested on: HL-60(TB) leukemia
MOLT-4 leukemia = tested on: MOLT-4 leukemia
ACHN renal = tested on: ACHN renal
UACC-62 melanoma = tested on: UACC-62 melanoma
HOP-92 NSCLC = tested on: HOP-92 NSCLC
SF-539 CNS = tested on: SF-539 CNS
786-0 renal = tested on: 786-0 renal
UO-31 renal = tested on: UO-31 renal
SW-620 colon = tested on: SW-620 colon
CCRF-CEM leukemia = tested on: CCRF-CEM leukemia
SK-MEL-28 melanoma = tested on: SK-MEL-28 melanoma
OVCAR-5 ovarian = tested on: OVCAR-5 ovarian
MALME-3M melanoma = tested on: MALME-3M melanoma
K-562 leukemia = tested on: K-562 leukemia

## Cc1ccc(Cl)cc1-c1nc(N)nc(Nc2ccc(Br)cc2)n1
SNB-75 CNS
  GI50: 0.0452 µM
  TGI: 24.3 µM
SR leukemia
  GI50: 0.0173 µM
  TGI: 0.0376 µM
A498 renal
  GI50: 0.038 µM
  TGI: 14.8 µM
COLO 205 colon
  GI50: 0.034 µM
  TGI: 0.0936 µM
SK-MEL-5 melanoma
  GI50: 0.0242 µM
  TGI: 0.0586 µM
NCI-H23 lung
  GI50: 0.0499 µM
  TGI: > 100 µM
EKVX NSCLC
  GI50: 0.0494 µM
  TGI: > 100 µM
OVCAR-8 ovarian
  GI50: 0.0518 µM
  TGI: > 100 µM
IGROV1 ovarian
  GI50: 0.0733 µM
  TGI: > 100 µM
NCI-H226 lung
  GI50: 0.0356 µM
  TGI: 0.0978 µM
A549 NSCLC
  GI50: 0.088 µM
  TGI: > 100 µM
HCC-2998 colon
  GI50: 0.0259 µM
  TGI: 0.17 µM
PC-3 prostate
  GI50: 0.046 µM
  TGI: 51.9 µM
U251 glioblastoma
  GI50: 0.0428 µM
  TGI: 2.87 µM
MDA-MB-435 melanoma
  GI50: 0.02 µM
  TGI: 0.0394 µM
MDA-MB-231 breast
  GI50: 0.0844 µM
  TGI: > 100 µM
RPMI-8226 leukemia
  GI50: 0.02 µM
  TGI: 0.0383 µM
SK-OV-3 ovarian
  GI50: 0.0386 µM
  TGI: 57 µM
BT-549 breast
  GI50: 0.0491 µM
  TGI: 0.374 µM
HOP-62 NSCLC
  GI50: 0.036 µM
  TGI: 17.6 µM
TK-10 renal
  GI50: 0.07 µM
  TGI: > 100 µM
SNB-19 CNS
  GI50: 0.0541 µM
  TGI: 14.4 µM
HCT-15 colon
  GI50: 0.0374 µM
  TGI: 0.271 µM
T-47D breast
  GI50: 23.5 µM
  TGI: > 100 µM
NCI-H460 NSCLC
  GI50: 0.0252 µM
  TGI: 0.0633 µM
SN12C renal
  GI50: 0.0254 µM
  TGI: 37.5 µM
NCI-H522 lung
  GI50: 0.0239 µM
  TGI: 0.0479 µM
SF-268 CNS
  GI50: 0.0504 µM
  TGI: > 100 µM
UACC-257 melanoma
  GI50: 0.0401 µM
  TGI: > 100 µM
CAKI-1 renal
  GI50: 0.0688 µM
  TGI: > 100 µM
RXF 393 renal
  GI50: 0.0328 µM
  TGI: 36.6 µM
NCI/ADR-RES ovarian
  GI50: 0.0209 µM
  TGI: 0.0513 µM
OVCAR-3 ovarian
  GI50: 0.0223 µM
  TGI: 0.0458 µM
M14 melanoma
  GI50: 0.0289 µM
  TGI: 0.0712 µM
MDA-MB-468 breast
  GI50: 0.174 µM
  TGI: 0.378 µM
OVCAR-4 ovarian
  GI50: 0.0573 µM
  TGI: 91.8 µM
LOX IMVI melanoma
  GI50: 0.0552 µM
  TGI: 0.569 µM
DU-145 prostate
  GI50: 0.0395 µM
  TGI: 0.269 µM
HS 578T breast
  GI50: 0.0214 µM
  TGI: 0.0511 µM
NCI-H322M lung
  GI50: 0.409 µM
  TGI: > 100 µM
HT29 colon
  GI50: 0.0344 µM
  TGI: 15.1 µM
KM12 colon
  GI50: 0.0434 µM
  TGI: 94.1 µM
SF-295 CNS
  GI50: 0.0355 µM
  TGI: 12.6 µM
MCF7 breast
  GI50: 0.0501 µM
  TGI: > 100 µM
HCT-116 colon
  GI50: 0.0452 µM
  TGI: > 100 µM
HL-60(TB) leukemia
  GI50: 0.0205 µM
  TGI: 0.0352 µM
MOLT-4 leukemia
  GI50: 0.021 µM
  TGI: 0.0372 µM
ACHN renal
  GI50: 0.077 µM
  TGI: > 100 µM
UACC-62 melanoma
  GI50: 0.0453 µM
  TGI: > 100 µM
HOP-92 NSCLC
  GI50: 10.4 µM
  TGI: > 100 µM
SF-539 CNS
  GI50: 0.0363 µM
  TGI: 1.06 µM

## C=CC(=O)N1C[C@H](COc2nc(Nc3cnn(C)c3)nc3[nH]cc(Cl)c23)[C@@H](OC)C1
SNB-75 CNS
  GI50: 0.467 µM
  TGI: 1.88 µM
SR leukemia
  GI50: 0.19 µM
  TGI: 0.351 µM
A498 renal
  GI50: 0.584 µM
  TGI: 21.4 µM
COLO 205 colon
  GI50: 0.54 µM
  TGI: 11.1 µM
SK-MEL-5 melanoma
  GI50: 3.01 µM
  TGI: 12.2 µM
NCI-H23 lung
  GI50: 1.59 µM
  TGI: 9.36 µM
EKVX NSCLC
  GI50: 1.31 µM
  TGI: 7.08 µM
OVCAR-8 ovarian
  GI50: 4.15 µM
  TGI: 18.7 µM
IGROV1 ovarian
  GI50: 0.852 µM
  TGI: 3.31 µM
NCI-H226 lung
  GI50: 0.394 µM
  TGI: 9.42 µM
A549 NSCLC
  GI50: 2.25 µM
  TGI: 13.1 µM
HCC-2998 colon
  GI50: 3.86 µM
  TGI: 15 µM
PC-3 prostate
  GI50: 4.53 µM
  TGI: 20.5 µM
786-0 renal
  GI50: 4.84 µM
  TGI: 41.8 µM
MDA-MB-435 melanoma
  GI50: 4.27 µM
  TGI: 20.9 µM
MDA-MB-231 breast
  GI50: 2.78 µM
  TGI: > 100 µM
RPMI-8226 leukemia
  GI50: 1 µM
  TGI: 3.47 µM
SK-OV-3 ovarian
  GI50: 0.556 µM
  TGI: 5.05 µM
BT-549 breast
  GI50: 0.47 µM
  TGI: 10.3 µM
HOP-62 NSCLC
  GI50: 4.05 µM
  TGI: 26.5 µM
SNB-19 CNS
  GI50: 5.2 µM
  TGI: 23.1 µM
HCT-15 colon
  GI50: 2.93 µM
  TGI: 12.3 µM
T-47D breast
  GI50: 4.63 µM
  TGI: 18 µM
UO-31 renal
  GI50: 7.62 µM
  TGI: > 100 µM
SW-620 colon
  GI50: 0.673 µM
  TGI: 2.11 µM
NCI-H460 NSCLC
  GI50: 1.81 µM
  TGI: 11.6 µM
CCRF-CEM leukemia
  GI50: 0.242 µM
  TGI: 0.544 µM
SN12C renal
  GI50: 0.633 µM
  TGI: 12.8 µM
NCI-H522 lung
  GI50: 0.281 µM
  TGI: 0.858 µM
SF-268 CNS
  GI50: 1.93 µM
  TGI: 12.3 µM
UACC-257 melanoma
  GI50: 5.21 µM
  TGI: 17.1 µM
CAKI-1 renal
  GI50: 1.17 µM
  TGI: 11.9 µM
RXF 393 renal
  GI50: 5.76 µM
  TGI: 22.3 µM
NCI/ADR-RES ovarian
  GI50: 29.3 µM
  TGI: > 100 µM
OVCAR-3 ovarian
  GI50: 2.72 µM
  TGI: 23.6 µM
M14 melanoma
  GI50: 2.17 µM
  TGI: 18.2 µM
MDA-MB-468 breast
  GI50: 0.267 µM
  TGI: 0.628 µM
OVCAR-4 ovarian
  GI50: 1.75 µM
  TGI: 23.6 µM
LOX IMVI melanoma
  GI50: 1.52 µM
  TGI: 11.6 µM
SK-MEL-28 melanoma
  GI50: 3.82 µM
  TGI: 16.8 µM
DU-145 prostate
  GI50: 2.26 µM
  TGI: > 100 µM
HS 578T breast
  GI50: 1.37 µM
  TGI: 4.19 µM
NCI-H322M lung
  GI50: 1.39 µM
  TGI: 13.8 µM
HT29 colon
  GI50: 4.01 µM
  TGI: > 100 µM
KM12 colon
  GI50: 0.287 µM
  TGI: 14.3 µM
SF-295 CNS
  GI50: 13.3 µM
  TGI: 31.5 µM
MCF7 breast
  GI50: 2.02 µM
  TGI: 15.6 µM
HL-60(TB) leukemia
  GI50: 0.408 µM
  TGI: 1.55 µM
MOLT-4 leukemia
  GI50: 0.308 µM
  TGI: 0.833 µM
OVCAR-5 ovarian
  GI50: 5.34 µM
  TGI: > 100 µM
MALME-3M melanoma
  GI50: 8.86 µM
  TGI: 21.2 µM
K-562 leukemia
  GI50: 2.14 µM
  TGI: 12.3 µM
ACHN renal
  GI50: 1.94 µM
  TGI: 15.4 µM
UACC-62 melanoma
  GI50: 0.912 µM
  TGI: 13.5 µM
SF-539 CNS
  GI50: 1.21 µM
  TGI: 3.2 µM
